From patent publication US12559492B2, “BRAF degraders” (C4 Therapeutics, Inc., priority 2020, dated 2026)

Molecular target: BRAF^V600E protein (Homo sapiens, UniProt P15056, V600E)
Experiment: HiBiT cellular BRAF V600E degradation assay
Type: cell-based
Details: 24 h incubation; for DC50: A375.10 cells (HiBiT tag knocked in at N-terminal of BRAF V600E), concentration at which 50% of total cellular BRAF V600E is degraded; for Emax: A375.10 cells, Emax = amount of residual protein remaining in the cell after compound treatment, read-out: HiBit 24 h Emax

BRAF^V600E protein, sequence (P15056 whole entry V600E): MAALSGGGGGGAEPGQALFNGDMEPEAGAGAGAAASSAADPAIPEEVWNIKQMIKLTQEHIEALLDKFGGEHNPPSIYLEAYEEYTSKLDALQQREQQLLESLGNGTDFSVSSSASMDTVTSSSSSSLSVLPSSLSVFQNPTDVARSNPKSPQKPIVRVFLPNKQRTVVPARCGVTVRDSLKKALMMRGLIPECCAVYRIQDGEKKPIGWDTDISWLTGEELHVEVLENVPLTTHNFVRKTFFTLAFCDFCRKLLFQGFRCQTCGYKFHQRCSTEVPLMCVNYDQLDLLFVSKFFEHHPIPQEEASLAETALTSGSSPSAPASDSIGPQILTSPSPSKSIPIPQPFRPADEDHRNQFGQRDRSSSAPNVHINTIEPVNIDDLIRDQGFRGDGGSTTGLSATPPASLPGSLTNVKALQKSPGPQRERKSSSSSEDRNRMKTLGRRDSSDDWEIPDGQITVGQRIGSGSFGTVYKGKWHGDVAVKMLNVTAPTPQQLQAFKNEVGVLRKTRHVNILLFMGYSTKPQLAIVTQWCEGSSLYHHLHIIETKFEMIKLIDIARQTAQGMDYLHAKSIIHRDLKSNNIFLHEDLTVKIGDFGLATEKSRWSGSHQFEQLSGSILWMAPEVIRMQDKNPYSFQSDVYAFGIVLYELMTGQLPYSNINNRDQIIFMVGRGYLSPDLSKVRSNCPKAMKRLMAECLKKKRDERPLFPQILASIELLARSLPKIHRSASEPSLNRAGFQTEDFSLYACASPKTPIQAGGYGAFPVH

Structure (SMILES) | DC50 [nM] | Emax [%]
CCN(C)S(=O)(=O)Nc1ccc(F)c(C(=O)c2c[nH]c3ncc(-c4cnc(N5CCN(C(=O)CN6CCC(c7ccc(NC8CCC(=O)NC8=O)cc7C(F)F)CC6)CC5)nc4)cc23)c1F (centres unmarked) [Example 39, 5-[2-[4-[2-[4-[2-(difluoromethyl)-4-[(2,6-dioxo-3-piperidyl)amino]phenyl]-1-piperidyl]acetyl]piperazin-1-yl]pyrimidin-5-yl]-3-[3-[[ethyl(methyl)sulfamoyl]amino]-2,6-difluoro-benzoyl]-1H-pyrrolo[2,3-b]pyridine] | 10.2 | 8.74
CCN(C)S(=O)(=O)Nc1ccc(F)c(C(=O)c2c[nH]c3ncc(-c4cnc(N5CCC(CC(=O)NC6CCN(c7ccc(NC8CCC(=O)NC8=O)cc7F)CC6)CC5)nc4)cc23)c1F (centres unmarked) [Example 134, N-[1-[4-[(2,6-dioxo-3-piperidyl)amino]-2-fluoro-phenyl]-4-piperidyl]-2-[1-[5-[3-[3-[[ethyl(methyl)sulfamoyl]amino]-2,6-difluoro-benzoyl]-1H-pyrrolo[2,3-b]pyridin-5-yl]pyrimidin-2-yl]-4-piperidyl]acetamide] | 18.9 | 11
CCN(C)S(=O)(=O)Nc1ccc(F)c(C(=O)c2c[nH]c3ncc(-c4ccc(N5CCN(CCN6CCC(c7ccc(OC8CCC(=O)NC8=O)cc7)CC6)CC5)nc4)cc23)c1F (centres unmarked) [Example 144, 5-[6-[4-[2-[4-[4-[(2,6-dioxo-3-piperidyl)oxy]phenyl]-1-piperidyl]ethyl]piperazin-1-yl]-3-pyridyl]-3-[3-[[ethyl(methyl)sulfamoyl]amino]-2,6-difluoro-benzoyl]-1H-pyrrolo[2,3-b]pyridine] | 16.1 | 15.6
CCN(C)S(=O)(=O)Nc1ccc(F)c(C(=O)c2c[nH]c3ncc(-c4cnc(N5CCN(C(=O)CN6CCC(c7ccc(NC8CCC(=O)NC8=O)cn7)CC6)CC5)nc4)cc23)c1F (centres unmarked) [Example 21, 5-[2-[4-[2-[4-[5-[(2,6-dioxo-3-piperidyl)amino]-2-pyridyl]-1-piperidyl]acetyl]piperazin-1-yl]pyrimidin-5-yl]-3-[3-[[ethyl(methyl)sulfamoyl]amino]-2,6-difluoro-benzoyl]-1H-pyrrolo[2,3-b]pyridine] | 7.1 | 11.9
CCN(C)S(=O)(=O)Nc1ccc(F)c(C(=O)c2c[nH]c3ncc(-c4ccc(N5CCN(C(=O)CC6(O)CCN(c7ccc(NC8CCC(=O)NC8=O)cc7F)CC6)CC5)c(C(F)(F)F)c4)cc23)c1F (centres unmarked) [Example 212, 5-[4-[4-[2-[1-[4-[(2,6-dioxo-3-piperidyl)amino]-2-fluoro-phenyl]-4-hydroxy-4-piperidyl]acetyl]piperazin-1-yl]-3-(trifluoromethyl)phenyl]-3-[3-[[ethyl(methyl)sulfamoyl]amino]-2,6-difluoro-benzoyl]-1H-pyrrolo[2,3-b]pyridine] | 32.8 | 7.02
CCN(C)S(=O)(=O)Nc1ccc(F)c(C(=O)c2c[nH]c3ncc(-c4cnc(N5CCN(C(=O)CC6(O)CCN(c7ccc(NC8CCC(=O)NC8=O)cc7C(F)F)CC6)CC5)nc4)cc23)c1F (centres unmarked) [Example 204, 5-[2-[4-[2-[1-[2-(difluoromethyl)-4-[(2,6-dioxo-3-piperidyl)amino]phenyl]-4-hydroxy-4-piperidyl]acetyl]piperazin-1-yl]pyrimidin-5-yl]-3-[3-[[ethyl(methyl)sulfamoyl]amino]-2,6-difluoro-benzoyl]-1H-pyrrolo[2,3-b]pyridine] | 3.8 | 8.6
CCN(C)S(=O)(=O)Nc1ccc(F)c(C(=O)c2c[nH]c3ncc(-c4cnc(N5CCN(C(=O)CC6CCN(c7ccc8c(C9CCC(=O)NC9=O)nn(C)c8c7)CC6)CC5)nc4)cc23)c1F (centres unmarked) [Example 47, 3-(2,6-dioxo-3-piperidyl)-6-[4-[2-[4-[5-[3-[3-[[ethyl(methyl)sulfamoyl]amino]-2,6-difluoro-benzoyl]-1H-pyrrolo[2,3-b]pyridin-5-yl]pyrimidin-2-yl]piperazin-1-yl]-2-oxo-ethyl]-1-piperidyl]-1-methyl-indazole] | 5.38 | 19.3
CCN(C)S(=O)(=O)Nc1ccc(F)c(C(=O)c2c[nH]c3ncc(-c4ccc(N5CCN(C(=O)CC6(O)CCN(c7ccc(N[C@H]8CCC(=O)NC8=O)cc7Cl)CC6)CC5)nc4)cc23)c1F [Example 208, 5-[6-[4-[2-[1-[2-chloro-4-[[(3S)-2,6-dioxo-3-piperidyl]amino]phenyl]-4-hydroxy-4-piperidyl]acetyl]piperazin-1-yl]-3-pyridyl]-3-[3-[[ethyl(methyl)sulfamoyl]amino]-2,6-difluoro-benzoyl]-1H-pyrrolo[2,3-b]pyridine] | 1.73 | 7.34
CCN(C)S(=O)(=O)Nc1ccc(F)c(C(=O)c2c[nH]c3ncc(-c4cnc(N5CCN(C(=O)CC6CCN(c7ccc8c(N9CCC(=O)NC9=O)nn(C)c8c7)CC6)CC5)nc4)cc23)c1F [Example 56, 3-(2,4-dioxohexahydropyrimidin-1-yl)-6-[4-[2-[4-[5-[3-[3-[[ethyl(methyl)sulfamoyl]amino]-2,6-difluoro-benzoyl]-1H-pyrrolo[2,3-b]pyridin-5-yl]pyrimidin-2-yl]piperazin-1-yl]-2-oxo-ethyl]-1-piperidyl]-1-methyl-indazole] | 5.12 | 14.3
CCN(C)S(=O)(=O)Nc1ccc(F)c(C(=O)c2c[nH]c3ncc(-c4ccc(N5C[C@H]6CC[C@@H](C5)N6C(=O)CN5CCC(c6ccc(NC7CCC(=O)NC7=O)cc6)CC5)nc4)cc23)c1F (mixture of isomers) [Example A71, 3-[3-[[Ethyl(methyl)sulfamoyl]amino]-2,6-difluorobenzoyl]-5-[6-[rac-(1R,5S)-8-[2-[4-[4-[(2,6-dioxopiperidin-3-yl)amino]phenyl]piperidin-1-yl]acetyl]-3,8-diazabicyclo[3.2.1]octan-3-yl]pyridin-3-yl]-1H-pyrrolo[2,3-b]pyridine] | 28 | 23
CCN(C)S(=O)(=O)Nc1ccc(F)c(C(=O)c2c[nH]c3ncc(-c4ccc(N5CCN(C(=O)CN6CCC(c7ccc(OC8CCC(=O)NC8=O)cc7)CC6)CC5)nc4)cc23)c1F (centres unmarked) [Example A1, 5-[6-[4-[2-[4-[4-(2,6-Dioxopiperidin-3-yl)oxyphenyl]piperidin-1-yl]acetyl]piperazin-1-yl]pyridin-3-yl]-3-[3-[[ethyl(methyl)sulfamoyl]amino]-2,6-difluorobenzoyl]-1H-pyrrolo[2,3-b]pyridine] | 17 | 13
CCN(C)S(=O)(=O)Nc1ccc(F)c(C(=O)c2c[nH]c3ncc(-c4cnc(N5CCN(C(=O)CCCN6CCC(c7ccc(NC8CCC(=O)NC8=O)cc7)CC6)CC5)nc4)cc23)c1F (centres unmarked) [Example A18, 5-[2-[4-[4-[4-[4-[(2,6-Dioxopiperidin-3-yl)amino]phenyl]piperidin-1-yl]butanoyl]piperazin-1-yl]pyrimidin-5-yl]-3-[3-[[ethyl(methyl)sulfamoyl]amino]-2,6-difluorobenzoyl]-1H-pyrrolo[2,3-b]pyridine] | 42 | 15
CCN(C)S(=O)(=O)Nc1ccc(F)c(C(=O)c2c[nH]c3ncc(-c4ccc(N5CCN(C(=O)CN6CCC(c7ccc(N8CCC(=O)NC8=O)cc7)CC6)CC5)nc4)cc23)c1F [Example A104, 5-[6-[4-[2-[4-[4-(2,4-Dioxo-1,3-diazinan-1-yl)phenyl]piperidin-1-yl]acetyl]piperazin-1-yl]pyridin-3-yl]-3-[3-[[ethyl(methyl)sulfamoyl]amino]-2,6-difluorobenzoyl]-1H-pyrrolo[2,3-b]pyridine] | 10 | 7
